US20150274639A1, “METHODS OF USE FOR COMPOSITIONS COMPRISING A BIOCIDAL POLYAMINE” (Curza Global, LLC, priority 2013, published 2015)
In brackets after ≈: the same amount, converted by molar mass. Several values for one entry are separate records, joined by “and”; a condition that tells them apart may be missing. Equal values may be shown once.

Experiments:
MRSA biofilm [1] = assay: MBEC, MBEC Inoculation Tray by Innovotech (to 10^2 CFU/peg in 24 hours); type: cell-based, methicillin-resistant Staphylococcus aureus; conditions: for MIC: Staphylococcus aureus, MRSA, Table 3A titled MICs, group head missing, values match MBEC; for MBEC, MRSA: Table 4
A. baumannii biofilm [2] = assay: as above; type: cell-based, Acinetobacter baumannii; conditions: Table 4
Source text: To determine the MBEC of each polyamine compound, the MBEC Inoculation Tray by Innovotech, formerly known as the Calgary biofilm device, was used. Within this device, biofilms grow on the surface of polystyrene pegs, 96 of which are attached to a lid. These pegs are inserted into a flat bottom 96-well plate. In this instance, the MBEC of a molecule was defined as the concentration of compound (in μg/mL) required to reduce 10^5 or 10^6 CFU/peg (biofilm levels varied by isolate) to 10^2 CFU/peg in a 24-hour period.
Following the manufacturer's guidelines, biofilms were grown on the surface of each peg by first making a 0.5 McFarland of each isolate. The 0.5 McFarland was diluted 1:100 in CAMHB. Into each well of a flat bottom 96-well plate, 150 μL of broth were pipetted. The plate was shaken at 100 rpm for 24 hours (P. aeruginosa and A. baumannii) or 48 hours (MRSA). The pegs were then placed into a separate flat bottom 96-well plate for 10 seconds with 200 μL of phosphate buffered saline (PBS) in each well to remove nonadherent cells. The lid was then placed into a 96-well plate that contained varying concentrations of antimicrobial with 200 μL per well. The plate was incubated for 24 hours at 37° C. after which time 100 μL of broth were plated on TSA. TSA plates were incubated 24 hours at 37° C. and the number of CFU counted to calculate the CFU/peg. In this instance, the MBEC was defined as the concentration of antimicrobial required to reduce 10^5 or 10^6 CFU/peg to 10^2 CFU/peg in a 24 hour period.
To determine the MBEC, the MBEC Inoculation Tray by Innovotech, formerly known as the Calgary biofilm device, is used. Within this device, biofilms grow on the surface of polystyrene pegs, 96 of which are attached to a lid. These pegs are inserted into a flat bottom 96-well plate. In this instance, the MBEC of a molecule is defined as the concentration of compound required to reduce approximately 10^6 CFU/peg to approximately 10^2 CFU/peg in a 24-hour period.
Following the manufacturer's guidelines, biofilms are grown on the surface of each peg by first making a 0.5 McFarland of A. baumannii. The 0.5 McFarland is diluted 1:100 in CAMHB broth. Into each well of a flat bottom 96-well plate, 150 μL of broth is pipetted. The plate is shaken at 100 rpm for 24 hours. The pegs are placed into a separate flat bottom 96-well plate for 10 seconds with 200 μL of phosphate buffered saline (PBS) in each well to remove nonadherent cells. The lid is placed into a 96-well plate that contains varying concentrations of antimicrobial with 200 μL of broth per well. The plate is incubated for 24 hours at 37° C. after which time 100 μL of broth is plated on TSA. TSA plates is incubated 24 hours at 37° C. and the number of CFU counted to calculate the CFU/peg.
MBEC data were collected using the MBEC Inoculation Tray by Innovotech. The MBEC was defined in these preliminary results as the concentration of antimicrobial required to reduce 10^5 or 10^6 CFU/peg to 10^2 CFU/peg in a 24-hour period.

MRSA biofilm [3] = assay: EBEC, high number biofilms on PEEK membranes (10^9 to 10^2 CFU/PEEK membrane in 24 hours); type: cell-based, methicillin-resistant Staphylococcus aureus; conditions: for EBEC, MRSA: Table 4
Protocol: In addition to determining the MIC and the MBEC of polyamine compounds against planktonic bacteria and low number biofilms, our group wanted to determine the efficacy of polyamine compounds against high number biofilms. To do so, biofilms were grown on the surface of polyetheretherketone (PEEK) membranes using a membrane biofilm reactor. This reactor is similar to the CDC biofilm reactor, but rather than growing biofilms on coupon surfaces, the reactor was modified to hold PEEK membranes. In short, to grow biofilms within this system, 500 mL of brain heart infusion (BHI) broth were inoculated with 1 mL of a 0.5 McFarland. The reactor was placed on a hot plate set at 34° C. and the bacteria were grown under batch conditions for 24 hours. Following this protocol, biofilms typically grow to 10^9 CFU/PEEK membrane. […] A solution of 10% BHI was then flowed through the reactor at a rate of 6.94 mL/min for an additional 24 hours. PEEK membranes were then removed and placed into 2 mL of CAMHB that contained a desired concentration of polyamine compound or antibiotic. The EBEC was defined as the concentration of antimicrobial required to reduce a biofilm from approximately 10^9 CFU/PEEK membrane to approximately 10^2 CFU/PEEK membrane in a 24-hour period.
In addition to determining the MIC and the MBEC of compounds against planktonic bacteria and low number biofilms, the efficacy of the compounds of the invention against high number biofilms is determined. To do so, biofilms are grown on the surface of PEEK membranes using a membrane biofilm reactor (Williams, D. L., Haymond, B. S. & Bloebaum, R. D. Use of delrin plastic in a modified CDC biofilm reactor. Res J Microbiol 6, 425-429 (2011); Williams, D. L., Woodbury, K. L., Haymond, B. S., Parker, A. E. & Bloebaum, R. D. A modified CDC biofilm reactor to produce mature biofilms on the surface of PEEK membranes for an in vivo animal model application. Curr Microbiol 62, 1657-1663 (2011); Williams, D. L. et al., In Vivo Efficacy of a Silicone—Cationic Steroid Antimicrobial Coating to Prevent Implant-Related Infection. Biomaterials 33, 8641-8656 (2012); Williams, D. L. et al., Experimental model of biofilm implant-related osteomyelitis to test combination biomaterials using biofilms as initial inocula. J Biomed Mat Res A 100, 1888-1900 (2012)). This reactor is similar to the CDC biofilm reactor, but rather than growing biofilms on coupon surfaces, the reactor was modified to hold PEEK membranes. In short, to grow biofilms within this system, 500 mL of brain heart infusion (BHI) broth is inoculated with 1 mL of a 0.5 McFarland. The reactor is placed on a hot plate set at 34° C. and the bacteria grown under batch conditions for 24 hours. A solution of 10% BHI will then be flowed through the reactor at a rate of 6.94 mL/min for an additional 24 hours. Following this protocol, biofilms typically grow to 10^9 CFU/PEEK membrane. PEEK membranes is removed and placed into 2 mL of CAMHB that contain a desired concentration of the test compound. The EBEC is defined as the concentration of antimicrobial required to reduce a biofilm from approximately 10^9 CFU/PEEK membrane to approximately 10^2 CFU/PEEK membrane in a 24-hour period.
EBEC data were collected to determine the efficacy of CZ-52, CZ-58 and traditional antibiotics against high number biofilms containing approximately 10^9 CFU grown on the surface of a polyetheretherketone (PEEK) membrane.

A. baumannii biofilm [4] = assay: as above; type: cell-based, Acinetobacter baumannii; conditions: Table 3B titled MICs, group head missing, values match EBEC; for MIC: Acinetobacter baumannii

Compound | MIC (MRSA biofilm [1]) | MBEC, MRSA (MRSA biofilm [1]) | MBEC, A. baumannii (A. baumannii biofilm [2]) | EBEC, MRSA (MRSA biofilm [3]) | MIC (A. baumannii biofilm [4]) | MIC, A. baumannii (A. baumannii biofilm [4]) | reduction of MRSA biofilms (MRSA biofilm [3]; at 250 μg/mL, 24-hour period)
NCCCNCCCNCc1cccc(CNCCCNCCCN)c1 [CZ-25] | 25 µg/mL (≈ 68.6 µM) | 25 μg/mL and 69 μM | 450 μg/mL and 1234 μM | > 5,000 μg/mL and 13,715 μM | > 5000 µg/mL |  | 
NCCCNCCCNCc1cc(CNCCCNCCCN)cc(-c2ccccc2)c1 [CZ-58] |  | 30 μg/mL and 68 μM | > 50 μg/mL and > 113 μM | 1,500 μg/mL and 3,403 μM |  |  | 
Polymyxin B sulfate [reference compound] |  |  | 50 μg/mL and 36 μM |  |  | 1,000 μg/mL | 
NCCCNCCCNCc1cc(CNCCCNCCCN)cc(CNCCCNCCCN)c1 [CZ-52] | 20 µg/mL (≈ 39.4 µM) | 20 μg/mL and 40 μM | > 500 μg/mL and 995 μM | 250 μg/mL and 500 μM | > 5000 µg/mL |  | greater than 7 log10 units
